Measured values reported in the supplement of paper PMC5770543.
± gives the standard deviation.

How the values were obtained:
[1] = molecular target: Toxoplasma gondii RH tachyzoites; assay: EC50 growth inhibition (48 h luciferase)
[2] = system: Plasmodium falciparum 3D7; assay: % inhibition of schizont-to-ring transition vs DMSO; higher = more inhibition
Method in brief: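 Schizont-to-ring transition inhibition is the formation of new rings relative to vehicle controls. Tightly synchronised P. falciparum schizonts at about 40–42 hours post-invasion (1% parasitemia, 2.5% hematocrit, AlbuMAX-supplemented RPMI) were treated with compound at 1, 3 or 10 µM, alongside vehicle and positive controls. After glutaraldehyde fixation, Triton permeabilisation and Hoechst 33342 staining, at least 100,000 events were counted by flow cytometry, and values are the mean of three experiments.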

[3] = system: Plasmodium falciparum 3D7; assay: EC50 growth inhibition (60 h, SYBR Green); conditions: stage: ring-stage start
[4] = system: Toxoplasma gondii RH tachyzoites; assay: % growth inhibition vs DMSO (48 h luciferase); higher = more inhibition; conditions: 10 µM
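Throughout, for % growth inhibition vs DMSO (48 h luciferase): tested in triplicate wells of 96-well plates on confluent HFF monolayers, with 1% DMSO wells as negative control in four replicates.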

Compound | EC50 growth inhibition [1] [µM] | % inhibition of schizont-to-ring transition ([2]; 1 µM) [%] | % inhibition of schizont-to-ring transition ([2]; 3 µM) [%] | % inhibition of schizont-to-ring transition ([2]; 10 µM) [%] | EC50 growth inhibition [3] [µM] | % growth inhibition [4] [%]
COc1cc(C(=O)ON=C(N)Cc2cccc3ccccc23)cc(OC)c1OC | 0.836 | 7.84 | 57 | 73.7 | 0.218 | 99.01 ± 0.4
OC(CNCc1ccccc1)Cn1c2ccccc2c2ccccc21 (centres undefined) | 0.286 | 37.8 | 43 | 65.5 | 2.2 | 48.3 ± 2
CCc1ccc(Nc2cc(C)c3ccc(O)cc3n2)cc1 | 3.05 | 58.8 | 82.3 | 80.4 | 0.286 | 97.8 ± 1.4
CCN(CC)CCCNc1nc(-c2ccc(Cl)cc2)nc2ccccc12 | 0.122 | 44.9 | 45.1 | 58.3 | 3.52 | 80.8 ± 4.8
COc1ccc(C2c3ccc4ccccc4c3Oc3ncn(CCCN(C)C)c(=N)c32)cc1 (centres undefined) | 2.65 | 22.6 | 63.4 | 77.4 | 0.319 | 100.2 ± 0.12
CCOc1ccc2nc(C)cc(Nc3ccc(N(C)C)cc3)c2c1 | 1.44 | 44.9 | 65.7 | 69.3 | 0.41 | 98.02 ± 0.4
O=C(Cc1ccccc1)NC(c1ccc(Cl)cc1)c1c(O)ccc2ccccc12 (centres undefined) | 1.02 | 0.685 | 26.1 | 67.8 | 1.88 | 100.2 ± 0.43
O=C(NCC1Cc2cccc(-c3ccncc3)c2O1)c1csc2c1CCCC2 (centres undefined) | 0.845 | 9.1 | 14.2 | 20.6 | 4.48 | 94.12 ± 0.48
COc1cc(CNCCc2ccc(Cl)cc2)cc(OC)c1O | 5.99 | 3.17 | 4.67 | 38.3 | 1.78 | 51.4 ± 14
COCCN(C(=O)Cc1cccs1)C(C(=O)NCc1ccc(OC)cc1)c1ccc(C(C)C)cc1 (centres undefined) | 2.42 | 10.9 | 13.7 | 21.6 | 0.935 | 91.5 ± 3.5
CCN(CC)CCn1c(=N)n(CC(O)c2ccc(Cl)c(Cl)c2)c2ccccc21 (centres undefined) | 1.31 | 51 | 73.3 | 78.2 | 0.267 | 85.7 ± 6.1
Cc1ccccc1OCCSc1nc2ccc(NC(=O)c3cccs3)cc2s1 | 1.16 | 10.7 | 28.6 | 55.5 | 3.73 | 99.844 ± 0.082
Oc1ccc(Br)cc1CN1CCN(Cc2ccc(Cl)cc2)CC1 | 6.61 | 16.2 | 45.5 | 68.8 | 1.09 | 91.5 ± 3.5
COc1ccc(/C=C2/SC(Nc3ccc(F)cc3)=NC2=O)c(OC)c1 | 0.00769 | 23.5 | 31.5 | 54.2 | 0.88 | 92 ± 2.3
CCOC(=O)c1cn(CC)c2cc(N(C)CCc3ccc(OC)c(OC)c3)c(F)cc2c1=O | 0.91 | 36.8 | 60.5 | 66.7 | 0.21 | 97.69 ± 0.15
N=c1n(CCN2CCCCC2)c2ccccc2n1CC(O)c1cccc(Br)c1 (centres undefined) | 4.58 | < 0 | 35.2 | 64 | 0.624 | 85.2 ± 2.2
Oc1ccc(Cl)cc1CNc1nc2ccccc2[nH]1 | 1.31 | 22.5 | 38.5 | 58.6 | 1.42 | 96.5 ± 1.9

Compound | EC50 growth inhibition [1] [µM] | % inhibition of schizont-to-ring transition ([2]; 1 µM) [%] | % inhibition of schizont-to-ring transition ([2]; 3 µM) [%] | % inhibition of schizont-to-ring transition ([2]; 10 µM) [%] | EC50 growth inhibition [3] [µM] | % growth inhibition [4] [%]
COc1ccc2nc(C)cc(Nc3ccc(Cl)cc3)c2c1 | 0.556 | 24.7 | 39.5 | 56.8 | 0.477 | 99.3 ± 1
O=C1c2ccccc2C2=Nc3ccccc3SC(c3cccc(F)c3)C12 (centres undefined) | 0.916 | 15.1 | 29 | 37.5 | 0.283 | 99.31 ± 0.18
FC(F)(F)c1ccc(Nc2nnnc3ccccc23)cc1 | 0.681 | < 0 | 4.32 | 52.7 | 1.02 | 83.5 ± 1.2
O=C(Nc1ccc(Cl)cc1C(=O)Nc1ccncc1)c1ccc(Cl)cc1Cl | 3.95 | 3.75 | 32.4 | 62.5 | 1.28 | 80.8 ± 4.7
O=c1nc(C=Cc2ccc(Br)cc2)oc2ccccc12 | 0.116 | 15.3 | 24.2 | 54 | 1.77 | 99.06 ± 0.14
COc1ccccc1NC1=C(N2CCCCC2)C(=O)c2ccccc2C1=O | 4.95 | 38.5 | 61.8 | 64.7 | 0.0359 | 90.3 ± 3.8
CCCOCc1cc(CN2CCN(c3cccc(Cl)c3)CC2)c(O)c2ncccc12 | 1.5 | 6.74 | 41.8 | 52.5 | 3.79 | 99.61 ± 0.24
Cc1cc(N2CCCC2)nc(Nc2ccc(NC(=O)CCc3ccccc3)cc2)n1 | 0.102 | 55.6 | 62.1 | 67.5 | 0.139 | 96.07 ± 0.93
CCCCNc1nc(NC(C)(C)C)nc(NC(C)(C)C)n1 | 0.603 | 12.2 | 25.9 | 66.4 | 2.76 | 93.8 ± 2.5
O=C1c2ccc3c4c(ccc(c24)C(=O)N1CCCCO)C(=O)N(CCCCO)C3=O | 0.421 | 9.23 | 16.9 | 64.2 | 4.81 | 99.55 ± 0.29
Nc1nc(Nc2cccc(F)c2)nc2ccccc12 | 8.21 | 15.3 | 31.5 | 62.7 | 1.03 | 100.5 ± 0.22
CCCCC(O)(c1ccc(Cl)cc1)C(CN1CCOCC1)c1ccc(Cl)cc1 (centres undefined) | 5 | 21 | 18.3 | 40.5 | 2.01 | 99.1 ± 0.71
c1ccc(CNc2nc(Nc3ccccc3)nc3ccccc23)cc1 | 0.708 | 44.8 | 51.2 | 66.8 | 0.181 | 99.917 ± 0.022
CN(C)c1ccc(C=Cc2nc(=O)c3ccccc3o2)cc1 | 0.264 | 44.1 | 60.6 | 70.1 | 0.522 | 99.12 ± 0.036
CCN(CC)c1ccc(NC(=O)c2cccs2)cc1 | 1.65 | < 0 | 3.66 | 31.7 | 2.11 | 91.4 ± 2.7
O=C(Nc1cccc(C(F)(F)F)c1)c1cc(Cl)ccc1O | 0.0092 | < 0 | 20.2 | 51.6 | 3.77 | 99.77 ± 0.14
CCOC(=O)c1cnc2ccc(OC)cc2c1NCc1ccccc1 | 1.4 | 42 | 45.3 | 59.1 | 6.78 | 97.7 ± 1.4
